The results in this text go back to EP0183174A2, “Substituted phenoxy urea, processes for its preparation and herbicide containing it as active ingredient” (KUMIAI CHEMICAL INDUSTRY CO., LTD., priority 1984, dated 1986).

Assay in all cases: Test Example 3: herbicidal test by upland soil treatment (phytotoxicity)
Assay type in all cases: in vivo
What all share (settings): evaluated twenty days after application

Data set [1] deals with cotton. Set-up: key: 5: Withered; 4.5: Herbicidal effect (or phytotoxicity) in a range of 90 to 99%; 4: Herbicidal effect (or phytotoxicity) in a range of 80 to 89%; 3.5: Herbicidal effect (or phytotoxicity) in a range of 70 to 79%; 3: Herbicidal effect (or phytotoxicity) in a range of 60 to 69%; 2.5: Herbicidal effect (or phytotoxicity) in a range of 50 to 59%; 2: Herbicidal effect (or phytotoxicity) in a range of 40 to 49%; 1.5: Herbicidal effect (or phytotoxicity) in a range of 30 to 39%; 1: Herbicidal effect (or phytotoxicity) in a range of 20 to 29%; 0.5: Herbicidal effect (or phytotoxicity) in a range of 1 to 19%; 0: No herbicidal effect (or no phytotoxicity). From the text:
(§1) Into each plastic pot of 600 cm^2, upland soil was filled, then seeds of barnyardgrass, crabgrass, green foxtail, redroot pigweed, rice flatsedge, rice, wheat, maize, soybean, cotton and sugar beet were sown, and they were covered with soil. A predetermined amount of the wettable powder prepared from the test compound in accordance with Formulation Example 3 and diluted with water, was uniformly applied to the surface of the soil at an application rate of 1000 liter/hectare by means of a small size spray. They were grown in a greenhouse, and twenty days after the application, the herbicidal effects and phytotoxicity were evaluated in accordance with the standards as identified in Table 5.

Data set [2] relates to rice. Set-up: key: 5: Withered; 4.5: Herbicidal effect (or phytotoxicity) in a range of 90 to 99%; 4: Herbicidal effect (or phytotoxicity) in a range of 80 to 89%; 3.5: Herbicidal effect (or phytotoxicity) in a range of 70 to 79%; 3: Herbicidal effect (or phytotoxicity) in a range of 60 to 69%; 2.5: Herbicidal effect (or phytotoxicity) in a range of 50 to 59%; 2: Herbicidal effect (or phytotoxicity) in a range of 40 to 49%; 1.5: Herbicidal effect (or phytotoxicity) in a range of 30 to 39%; 1: Herbicidal effect (or phytotoxicity) in a range of 20 to 29%; 0.5: Herbicidal effect (or phytotoxicity) in a range of 1 to 19%; 0: No herbicidal effect (or no phytotoxicity).
Description: as §1

The test system of data set [3] is sugar beet.
Description: as §1

Turning to `CN(C)C(=O)NOc1cc(Cl)ccc1Cl` [Compound No. 1, 3-(2,5-Dichlorophenoxy)-1,1-dimethyl urea], the “Phytotoxicity Cotton” value in data set [1] (Dose 1 kg/HA) and in data set [1] (Dose 4 kg/HA) was 0 each time. Also, the “Phytotoxicity Rice” value in data set [2] (Dose 1 kg/HA) and in data set [2] (Dose 4 kg/HA) was 0 throughout. Further, the “Phytotoxicity Sugar beet” value in data set [3] (Dose 1 kg/HA) is given as 2 (Herbicidal effect (or phytotoxicity) in a range of 40 to 49%); in data set [3] (Dose 4 kg/HA), 3 (Herbicidal effect (or phytotoxicity) in a range of 60 to 69%).
